The text below walks through data of US20170334899A1, “AMINO-SUBSTITUTED ISOTHIAZOLES” (Bayer Pharma Aktiengesellschaft, priority 2014, published 2017).

One assay deals with T1, CDK2/CycE (Homo sapiens, UniProt P24941).
T1 construct: GST; purchased ProQinase GmbH (Freiburg, Germany); host or cells: insect cells (Sf9)
Description: CDK2/CycE kinase assay (TR-FRET). It is filed as biochemical. Particulars: avg, read-out: CDK2 avg (IC50 [mol/l]). The essentials:
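GST-tagged human CDK2 and CycE from Sf9 cells, preincubated 15 min with compound, then 25 min at 22° C. with 10 μM ATP and 0.75 μM biotinylated Rb-derived peptide (final). Phospho-substrate read by TR-FRET (anti-pRB pSer807/pSer811, Eu anti-mouse IgG, streptavidin-XL665), 665/620 nm ratio, normalised to no-inhibitor and no-enzyme controls.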

In a further assay the test system is HeLa. Description: Proliferation assay (crystal violet), HeLa. It is filed as cell-based. Particulars: Homo sapiens, HeLa, 96 h, HeLa cells; 4 days incubation; crystal violet staining; read-out: IC50 inhibition of proliferation, HeLa. The essentials: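 Seed 1000–5000 cells/well, 10% FCS; 24 h later replace medium and add compound (0.001–10 μM, 0.5% DMSO); incubate 4 d; glutaraldehyde fix, 0.1% crystal violet pH 3.0, elute with 10% acetic acid; A595; 4-parameter IC50.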

Regarding `Cc1nsc(Nc2cnc(C(F)(F)F)cn2)c1C(=O)Nc1ccc(F)c(OC[C@H]2CCN(CC(F)F)C2)c1` [Example 397, N-(3-{[(3S)-1-(2,2-difluoroethyl)pyrrolidin-3-yl]methoxy}-4-fluorophenyl)-3-methyl-5-{[5-(trifluoromethyl)pyrazin-2-yl]amino}-1,2-thiazole-4-carboxamide], the IC50 at CDK2/CycE is over 20000 nM; in the assay with HeLa, 830 nM.
For `Cc1nsc(Nc2cnc(C(F)(F)F)cn2)c1C(=O)Nc1ccc(F)c(OC[C@H]2CCN(CC(F)(F)F)C2)c1` [Example 398, N-(4-fluoro-3-{[(3S)-1-(2,2,2-trifluoroethyl)pyrrolidin-3-yl]methoxy}phenyl)-3-methyl-5-{[5-(trifluoromethyl)pyrazin-2-yl]amino}-1,2-thiazole-4-carboxamide], in that order: over 20000 nM and 490 nM.
In the same order, the values of `Cc1nsc(Nc2cnc(C(F)(F)F)cn2)c1C(=O)Nc1ccc(F)c(OC[C@H]2CCN(CCC(F)(F)F)C2)c1` [Example 399, N-(4-fluoro-3-{[(3S)-1-(3,3,3-trifluoropropyl)pyrrolidin-3-yl]methoxy}phenyl)-3-methyl-5-{[5-(trifluoromethyl)pyrazin-2-yl]amino}-1,2-thiazole-4-carboxamide] are over 20000 nM and 650 nM.
